Like-named read-outs stand apart in the source and are kept apart here.
How the values were obtained:
Format in all cases: cell-based
[1] = target: T1, human Nav1.5 (late current) (Homo sapiens, UniProt Q14524); experiment: Nav1.5 Late Current Assay (QPatch HT whole-cell patch clamp, 30 nM ATX-II); conditions: HEK293 cells stably expressing human Nav1.5, pH 7.3, late current with 30 nM ATX-II, read-out: percent inhibition hNav1.5 Late (5 uM)
T1 construct: host or cells: HEK293
Description: (§1) In vitro Na+ Current Inhibition Assays were performed by Eurofins Discovery (St Charles, MO). All compound functional activity determinations were determined through electrophysiological analyses of Na+ currents in HEK293 cells expressing a stably transfected Na+ channel (human Nav1.1, 1.2, 1.3, 1.5, 1.6, 1.7, or 1.8). After harvesting with Accutase cells are maintained in serum free medium at room temperature prior to electrophysiological recording utilizing the QPatch HT automated whole-cell patch-clamp platform (Sophion Bioscience, Woburn MA). Stock solution aliquots of the test compound are prepared in DMSO at 300× the final assay concentrations, and stored at −20° C. until the day of assay. On the day of the assay, an aliquot of the stock solution is thawed and diluted into external solution (137 mM NaCl, 4 mM KCl, 1 mM MgCl2, 1.8 mM CaCl2, 10 mM HEPES, 10 mM Glucose (pH 7.3, titrated with 10M NaOH) to make final test concentrations. A final concentration of 0.33% DMSO is maintained for each concentration of the assay compounds. Internal solution for recordings of Na+ consist consists of 100 mM CsF, 45 mM CsCl, 5 mM NaCl, 10 mM HEPES, 5 mM EGTA (pH 7.3, titrated with 1M CsOH).
Onset and steady state induction of late Nav1.5 current was measured using a pulse pattern, repeated every 5 sec, consisting of a hyperpolarizing pulse to −120 mV for a 200 ms duration, depolarization to −15 mV amplitude for a 40 ms duration, followed by step to 40 mV for 200 ms and finally a 100 ms ramp (1.2 V/s) to a holding potential of −80 mV. Each concentration of compound was applied for 5 minutes. The assay was performed at room temperature. After establishing vehicle control condition, all further addition of external solutions contain 30 nM ATX-II to activate late currents. Each concentration of compound was also co-applied with 30 nM ATXII to estimate the Nav1.5 late current inhibition. […]. ATXII was used as the agonist positive control and was tested concurrently with the test compound. Ranolazine was used as the positive control and was tested concurrently with the test compound.
Nav1.5 late current was measured as the total charge flowing through the Nav1.5 channels (area under the curve) 5 ms after the Nav1.5 peak current till the end of the test pulse and as charge at their maxima during the ramp. Individual cell results were normalized to their respective vehicle control and the results were averaged. The sodium current was assessed in 30 nM ATXII as vehicle control conditions and then at the end of each five (5) minute compound application in the presence of 30 nM ATXII. Individual cell result was normalized to 30 nM ATXII vehicle control amplitude and the mean±SEM calculated for each compound concentration.

[2] = target: T2, human Nav1.5 (peak current) (Homo sapiens, UniProt Q14524); experiment: Nav1.5 Peak Current Assay (QPatch HT whole-cell patch clamp); conditions: HEK293 cells stably expressing human Nav1.5, pH 7.3, peak current at step to -15 mV, read-out: percent inhibition hNav1.5 Peak (5 uM)
T2 construct: host or cells: HEK293
Description: as §1
Onset and steady state block of peak Nav1.5 current was measured using a pulse pattern, repeated every 5 sec, consisting of a hyperpolarizing pulse to −120 mV for a 200 ms duration, depolarization to -15 mV amplitude for a 40 ms duration, followed by step to 40 mV for 200 ms and finally a 100 ms ramp (1.2 V/s) to a holding potential of −80 mV. Peak current was measured during the step to −15 mV.
Each concentration of compound was applied for 5 minutes. The assay was performed at room temperature and Tetracaine was used concurrently as a positive control. Only current amplitudes in excess of 200 pA at the control stage were analyzed. The amplitude of the sodium current was calculated by measuring the difference between the peak inward current on stepping to −15 mV (i.e. peak of the current) and the leak current. The sodium current was assessed in vehicle control conditions and then at the end of each five (5) minute compound application. Individual cell result was normalized to the vehicle control amplitude and the mean±SEM calculated for each compound concentration.

human Nav1.6 = target: T3, human Nav1.6 (Homo sapiens, UniProt Q9UQD0); experiment: Two pulse assay protocol, Nav1.6; conditions: 5 uM, peak current
T3 construct: host or cells: HEK293
Description: as §1
(§2) Two pulse assay protocol for human Nav1.1, 1.2, 1.3, 1.5, 1.6, 1.7, and 1.8 channels. Mammalian cultured cells expressing the indicated human Nav1.1, 1.2, 1.3, 1.5, 1.6, 1.7 or 1.8 channels were assayed using the The QPatch HT (Sophion Bioscience, Woburn MA) automated system with an intracellular solution (mM) of 100 CsF, 45 CsCl, 5 NaCl, 10 HEPES, 5 EGTA (pH 7.3, titrated with 1M CsOH) and extracellular solution (mM) of 137 NaCl, 4 KCl, 1 MgCl2, 1.8 CaCl2, 10 HEPES, 10 Glucose (pH 7.3, titrated with 10M NaOH). Onset and steady state block of the sodium channel was measured using a pulse pattern, repeated every 20 seconds (s) from a holding potential of −120 mV for 100 ms, and then pulsed to 0 mV for 500 ms to inactivate the Na channels and facilitate inactivated state-dependent binding of the test compounds. The cell membranes were then stepped back to −120 mV for 10 ms to recover from inactivation into resting or closed state (channels with test compound bound to them will not recover from inactivation and will not open) before stepping to 0 mV for 50 ms (pulse 2) to measure Na channels that are available to open. Peak current was measured during the step to 0 mV at pulse 1 and 2 to measure tonic and state-dependent inhibition. Compound activities were assessed by dividing post current amplitude (at the end of each five (5) minute compound application) by the vehicle control amplitude and the mean calculated for each compound concentration. Tetracaine was used as a positive control and was tested concurrently with the test compounds. Current amplitudes in excess of 200 pA at the control stage were analyzed. The amplitude of the current was calculated by measuring the difference between the peak inward current on stepping to 0 mV (i.e. peak of the current) and remaining current at the end of the step. The current was assessed in vehicle control conditions and then at the end of each five (5) minute compound application.

human Nav1.7 = target: T4, human Nav1.7 (Homo sapiens, UniProt Q15858); experiment: Two pulse assay protocol, Nav1.7; conditions: peak current
T4 construct: host or cells: HEK293
Description: as §1, §2

human Nav1.8 = target: T5, human Nav1.8 (Homo sapiens, UniProt Q9Y5Y9); experiment: Two pulse assay protocol, Nav1.8; conditions: peak current
T5 construct: host or cells: HEK293
Description: as §1, §2

human Nav1.2 = target: T6, human Nav1.2 (Homo sapiens, UniProt Q99250); experiment: Two pulse assay protocol, Nav1.2; conditions: peak current
T6 construct: host or cells: HEK293
Description: as §1, §2

[3] = target: T7, human Nav1.5 (pulse 1, tonic inhibition) (Homo sapiens, UniProt Q14524); experiment: Two pulse assay protocol, Nav1.5; conditions: HEK293 cells stably expressing human Nav1.5, pH 7.3, peak current, pulse 1 (tonic), read-out: percent inhibition hNav1.5, Pulse 1 (5 uM)
T7 construct: host or cells: HEK293
Description: as §1, §2

[4] = target: T8, human Nav1.5 (pulse 2, state-dependent inhibition) (Homo sapiens, UniProt Q14524); experiment: Two pulse assay protocol, Nav1.5; conditions: HEK293 cells stably expressing human Nav1.5, pH 7.3, peak current, pulse 2 (state-dependent), read-out: percent inhibition hNav1.5, Pulse 2 (5 uM)
T8 construct: host or cells: HEK293
Description: as §1, §2

[5] = pulse 1 (tonic), read-out: percent inhibition hNav1.6, Pulse 1 (5 uM)
[6] = pulse 2 (state-dependent), read-out: percent inhibition hNav1.6, Pulse 2 (5 uM)
[7] = pulse 1 (tonic), read-out: percent inhibition hNav1.7, Pulse 1 (5 uM)
[8] = pulse 2 (state-dependent), read-out: percent inhibition hNav1.7, Pulse 2 (5 uM)
[9] = pulse 1 (tonic), read-out: percent inhibition hNav1.8, Pulse 1 (5 uM)
[10] = pulse 2 (state-dependent), read-out: percent inhibition hNav1.8, Pulse 2 (5 uM)

T3 sequence (Q9UQD0 whole entry): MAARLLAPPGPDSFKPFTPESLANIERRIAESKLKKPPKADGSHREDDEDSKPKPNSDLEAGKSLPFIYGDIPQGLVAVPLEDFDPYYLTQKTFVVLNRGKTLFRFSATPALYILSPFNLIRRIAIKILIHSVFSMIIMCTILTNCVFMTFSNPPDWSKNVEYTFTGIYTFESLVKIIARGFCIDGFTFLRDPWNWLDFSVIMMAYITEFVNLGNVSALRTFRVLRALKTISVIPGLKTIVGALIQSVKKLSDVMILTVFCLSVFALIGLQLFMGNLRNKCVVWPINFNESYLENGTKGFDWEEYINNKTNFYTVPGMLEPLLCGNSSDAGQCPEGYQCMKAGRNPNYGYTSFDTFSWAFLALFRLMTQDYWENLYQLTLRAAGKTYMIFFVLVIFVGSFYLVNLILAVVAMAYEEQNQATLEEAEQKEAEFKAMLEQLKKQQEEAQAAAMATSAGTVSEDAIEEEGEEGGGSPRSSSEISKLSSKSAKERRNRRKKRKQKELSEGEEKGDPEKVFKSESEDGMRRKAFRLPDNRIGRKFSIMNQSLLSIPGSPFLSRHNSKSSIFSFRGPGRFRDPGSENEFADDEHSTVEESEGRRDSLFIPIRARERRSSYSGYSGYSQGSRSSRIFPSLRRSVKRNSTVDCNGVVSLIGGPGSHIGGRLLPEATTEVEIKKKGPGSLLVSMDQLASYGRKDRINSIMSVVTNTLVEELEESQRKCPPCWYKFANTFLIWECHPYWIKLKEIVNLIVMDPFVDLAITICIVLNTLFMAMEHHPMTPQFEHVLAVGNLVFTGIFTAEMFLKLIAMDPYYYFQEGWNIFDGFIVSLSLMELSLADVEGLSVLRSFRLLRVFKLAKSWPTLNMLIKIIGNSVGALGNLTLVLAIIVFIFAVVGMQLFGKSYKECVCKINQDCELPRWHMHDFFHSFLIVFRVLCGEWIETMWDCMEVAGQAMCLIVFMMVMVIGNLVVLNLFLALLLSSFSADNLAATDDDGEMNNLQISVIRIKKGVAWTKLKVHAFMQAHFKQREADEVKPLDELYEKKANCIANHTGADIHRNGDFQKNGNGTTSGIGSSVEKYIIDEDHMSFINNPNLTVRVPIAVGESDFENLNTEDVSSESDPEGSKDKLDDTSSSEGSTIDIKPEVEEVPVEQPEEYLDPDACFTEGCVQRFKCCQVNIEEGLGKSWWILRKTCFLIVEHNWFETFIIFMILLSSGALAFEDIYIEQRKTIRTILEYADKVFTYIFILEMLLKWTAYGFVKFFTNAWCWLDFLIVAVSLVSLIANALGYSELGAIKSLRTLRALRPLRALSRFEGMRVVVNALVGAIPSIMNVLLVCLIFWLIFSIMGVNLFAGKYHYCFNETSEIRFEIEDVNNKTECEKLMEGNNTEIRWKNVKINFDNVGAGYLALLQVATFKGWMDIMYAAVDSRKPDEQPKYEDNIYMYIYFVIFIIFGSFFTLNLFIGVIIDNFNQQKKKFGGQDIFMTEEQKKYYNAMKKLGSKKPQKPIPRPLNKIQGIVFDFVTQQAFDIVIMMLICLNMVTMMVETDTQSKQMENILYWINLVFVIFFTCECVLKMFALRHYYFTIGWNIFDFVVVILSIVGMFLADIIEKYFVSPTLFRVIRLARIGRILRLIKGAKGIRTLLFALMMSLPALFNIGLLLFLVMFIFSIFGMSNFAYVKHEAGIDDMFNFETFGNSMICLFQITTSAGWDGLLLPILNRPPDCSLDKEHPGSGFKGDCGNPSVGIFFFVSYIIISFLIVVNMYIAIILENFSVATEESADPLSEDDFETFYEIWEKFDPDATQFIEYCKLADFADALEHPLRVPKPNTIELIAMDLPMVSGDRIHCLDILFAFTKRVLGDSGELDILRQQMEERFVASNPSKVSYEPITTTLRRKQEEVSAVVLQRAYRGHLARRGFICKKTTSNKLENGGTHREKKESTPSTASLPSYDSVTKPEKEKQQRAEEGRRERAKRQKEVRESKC
T1 sequence (Q14524 whole entry): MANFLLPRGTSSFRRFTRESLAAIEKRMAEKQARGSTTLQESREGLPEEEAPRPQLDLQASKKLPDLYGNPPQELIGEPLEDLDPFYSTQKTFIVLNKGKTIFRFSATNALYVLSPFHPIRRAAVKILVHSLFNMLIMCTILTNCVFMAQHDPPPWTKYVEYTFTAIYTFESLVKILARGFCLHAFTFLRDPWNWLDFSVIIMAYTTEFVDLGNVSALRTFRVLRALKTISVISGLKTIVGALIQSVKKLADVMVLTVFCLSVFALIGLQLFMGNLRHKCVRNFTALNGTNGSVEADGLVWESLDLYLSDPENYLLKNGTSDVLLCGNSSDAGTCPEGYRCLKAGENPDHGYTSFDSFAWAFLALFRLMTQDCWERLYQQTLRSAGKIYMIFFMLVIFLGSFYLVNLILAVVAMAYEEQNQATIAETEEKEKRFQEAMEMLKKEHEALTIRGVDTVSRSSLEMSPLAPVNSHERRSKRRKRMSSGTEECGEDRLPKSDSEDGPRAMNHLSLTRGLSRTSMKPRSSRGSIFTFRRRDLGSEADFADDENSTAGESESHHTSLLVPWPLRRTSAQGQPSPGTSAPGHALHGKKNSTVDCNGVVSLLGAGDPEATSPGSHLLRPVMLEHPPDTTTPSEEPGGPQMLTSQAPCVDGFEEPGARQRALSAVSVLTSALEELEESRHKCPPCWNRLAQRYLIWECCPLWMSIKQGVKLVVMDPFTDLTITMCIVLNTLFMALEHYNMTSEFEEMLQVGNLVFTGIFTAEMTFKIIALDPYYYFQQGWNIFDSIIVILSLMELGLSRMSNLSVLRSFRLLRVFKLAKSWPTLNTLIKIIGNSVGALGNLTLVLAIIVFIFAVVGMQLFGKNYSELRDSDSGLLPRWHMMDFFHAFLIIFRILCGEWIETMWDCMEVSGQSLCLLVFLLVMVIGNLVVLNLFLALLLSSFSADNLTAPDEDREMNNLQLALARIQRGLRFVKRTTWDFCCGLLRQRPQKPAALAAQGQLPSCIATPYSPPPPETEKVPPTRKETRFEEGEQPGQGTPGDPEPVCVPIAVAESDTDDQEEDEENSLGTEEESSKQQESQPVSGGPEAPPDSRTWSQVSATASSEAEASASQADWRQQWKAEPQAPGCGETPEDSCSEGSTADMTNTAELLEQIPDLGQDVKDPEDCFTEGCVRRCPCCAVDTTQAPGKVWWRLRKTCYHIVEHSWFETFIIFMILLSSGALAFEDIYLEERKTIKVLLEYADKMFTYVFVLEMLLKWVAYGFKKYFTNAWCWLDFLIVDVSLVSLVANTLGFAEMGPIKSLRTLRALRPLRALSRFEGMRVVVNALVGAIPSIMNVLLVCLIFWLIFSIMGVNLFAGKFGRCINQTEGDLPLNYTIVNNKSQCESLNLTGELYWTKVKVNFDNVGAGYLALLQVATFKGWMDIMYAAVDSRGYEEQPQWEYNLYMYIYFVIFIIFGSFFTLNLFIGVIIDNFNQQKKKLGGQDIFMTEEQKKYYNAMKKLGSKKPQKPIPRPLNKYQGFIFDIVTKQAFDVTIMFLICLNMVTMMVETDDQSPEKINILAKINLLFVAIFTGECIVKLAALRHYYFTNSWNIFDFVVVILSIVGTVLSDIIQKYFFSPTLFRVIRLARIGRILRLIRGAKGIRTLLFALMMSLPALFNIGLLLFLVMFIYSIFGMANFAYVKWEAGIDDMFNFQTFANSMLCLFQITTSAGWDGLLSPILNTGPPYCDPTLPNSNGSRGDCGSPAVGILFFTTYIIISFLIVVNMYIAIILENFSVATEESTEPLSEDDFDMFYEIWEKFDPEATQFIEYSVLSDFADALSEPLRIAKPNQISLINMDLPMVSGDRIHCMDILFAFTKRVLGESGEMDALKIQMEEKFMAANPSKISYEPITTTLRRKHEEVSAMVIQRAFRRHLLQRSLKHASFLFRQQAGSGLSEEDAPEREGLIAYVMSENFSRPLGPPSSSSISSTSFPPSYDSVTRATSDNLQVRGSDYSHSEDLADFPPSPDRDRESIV

Row | Compound | inhibition at 5 min, 5 uM [1] [%] | inhibition at 5 min, 5 µM [2] [%] | inhibition at 5 µM (human Nav1.6; [5]) [%] | inhibition at 5 µM (human Nav1.6; [6]) [%] | inhibition at 5 µM (human Nav1.7; [7]) [%] | inhibition at 5 µM (human Nav1.7; [8]) [%] | inhibition at 5 µM (human Nav1.8; [9]) [%] | inhibition at 5 µM (human Nav1.8; [10]) [%] | inhibition at 5 µM (human Nav1.2; pulse 1 (tonic), read-out: percent inhibition hNav1.2, Pulse 1 (5 uM)) [%] | inhibition at 5 µM (human Nav1.2; pulse 2 (state-dependent), read-out: percent inhibition hNav1.2, Pulse 2 (5 uM)) [%] | inhibition at 5 min, 5 µM [3] [%] | inhibition at 5 min, 5 µM [4] [%]
1 | CC(C)Oc1ccc(-c2ccc3ncc(-c4ccc(OC(C)C)nc4)n3c2)cc1 [Example C37, 2-(propan-2-yloxy)-5-{6-[4-(propan-2-yloxy)phenyl]imidazo[1,2-a]pyridin-3-yl}pyridine] | > 90 | < 50 | < 50 | > 90 | < 50 | > 90 | < 50 | 50 to 90 |  |  |  | 
2 | Cc1cc2ncc(-c3ccc(OC(C)(C)C)cc3)n2cc1-c1ccc(OC(C)C)cc1 [Example C55, 3-(4-(tert-butoxy)phenyl)-6-(4-isopropoxyphenyl)-7-methylimidazo[1,2-a]pyridine] | 50 to 90 | < 50 | < 50 | > 90 | < 50 | 50 to 90 | < 50 | < 50 |  |  |  | 
3 | Cc1cc2ncc(-c3ccc(OC(C)C)nc3)n2cc1-c1ccc(OC(C)C)cc1 [Example C70, 6-(4-isopropoxyphenyl)-3-(6-isopropoxypyridin-3-yl)-7-methylimidazo[1,2-a]pyridine] | 50 to 90 | < 50 | < 50 | < 50 |  |  |  |  |  |  |  | 
4 | CC(C)Oc1ccc(-c2ccc3ncc(-c4ccc(C(C)C)cc4)n3c2)cc1 [Example C73, 6-(4-isopropoxyphenyl)-3-(4-isopropylphenyl)imidazo[1,2-a]pyridine] |  |  | < 50 | > 90 | < 50 | 50 to 90 |  |  | < 50 | > 90 | < 50 | > 90

Reference: patent publication US20230303569A1, “HETEROCYCLIC COMPOUNDS AS THERAPEUTIC AGENTS” (Arisan Therapeutics Inc., priority 2021, published 2023)
